Results published in patent US20250304549A1, “HYDROXYAMIDE DERIVATIVE AND USE THEREOF” (SICHUAN HUIYU PHARMACEUTICAL CO., LTD., priority 2022, published 2025).
Structures can show the parent of a compound that is named as a salt.

How the values were obtained:
LSD1 = LSD1 (Homo sapiens (Human), UniProt O60341); assay: In vitro enzyme inhibition assay - LSD1 (HTRF); type: biochemical
NCI-H69 cells = assay: In vitro cell inhibition assay - NCI-H69 cell proliferation (CellTiter-Glo); type: cell-based; conditions: Homo sapiens, NCI-H69, H69 small cell lung cancer cell proliferation
How it was run: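 7-day exposure at 37° C., 5% CO2 to compounds serially diluted 5-fold (8 concentrations) in RPMI-640 containing 20% FBS, after overnight attachment at 1×10^3 cells/well. Read-out: CellTiter-Glo luminescence (RLU); IC50 from curve fit of inhibition rate.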

NCI-H1417 cells = assay: In vitro cell inhibition assay - H1417 cell proliferation (CellTiter-Glo); type: cell-based; conditions: Homo sapiens, NCI-H1417, H1417 small cell lung cancer cell proliferation
How it was run: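 Cells exposed to 8 compound concentrations (5-fold dilutions) in BEGM with 10% FBS for 7 days at 37° C., 5% CO2. Viable cells measured by CellTiter-Glo luminescence; inhibition versus no-inhibitor and no-cell controls, IC50 fitted.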

pan-HDAC = assay: In vitro enzyme inhibition assay - HDAC (HDAC-Glo I/II), pan-HDAC; type: biochemical
How it was run: (§1)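 Eight compound concentrations (5-fold steps from a 1 mM DMSO stock) tested against pan-HDAC, HDAC1 and HDAC8 with HDAC-Glo I/II reagents, luminescence read-out. Percent inhibition normalized to no-inhibitor and no-enzyme wells; IC50 derived by four-parameter logistic fit.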

NCI-H526 cells = assay: In vitro cell inhibition assay - NCI-H526 cell proliferation (CellTiter-Glo); type: cell-based; conditions: Homo sapiens, NCI-H526, 120 h, H526 small cell lung cancer cell proliferation, 5 days
Procedure: 6. In Vitro Cell Inhibition Assay—NCI-H526 Cell Proliferation
The inhibitory effect of the compounds on cell proliferation was assessed by detecting the number of viable cells using CellTiter-Glo® reagent. NCI-H526 cells in the logarithmic growth phase were collected and inoculated into transparent bottom 96-well plates at a density 1×10^3 cells per well with 100 μL of medium, and incubated at 37° C., 5% CO2 overnight. The compounds were sequentially diluted in a 5-fold concentration gradient with DMSO to obtain 8 different concentrations. These were then diluted with RPMI-640 (containing 10% FBS) cell culture medium to obtain the compound working solution (2×), which was added to the cell supernatant at 100 μL per well. The incubation continued for 5 days at 37° C., 5% CO2. The plate was then removed and equilibrated at room temperature (25° C.) along with the CellTiter-Glo® mixing reagent for 10-30 minutes; 80 μL of the culture medium was carefully aspirated from each well, and 80 μL of CellTiter-Glo® reagent was added. The cells were thoroughly mixed with the CellTiter-Glo® mixing reagent using a microplate shaker for 2 min. and then incubated at room temperature for 10 min. The 96-well plate was subsequently placed on a multifunctional microplate reader to record the Luminescence values (RLU).
The inhibition rate was calculated using the following formula: […]
Note: ‘Negative’ refers to the group without inhibitors; ‘Blank’ refers to the group without cells.
The IC50 value was determined by fitting the inhibition rate by GraphPad Prism software.

HDAC8 = HDAC8 (Homo sapiens (Human), UniProt Q9BY41); assay: In vitro enzyme inhibition assay - HDAC (HDAC-Glo I/II), HDAC8; type: biochemical; conditions: read-out: HDAC IC50 (nM) HDAC 8
How it was run: as §1

Sequence of HDAC8 (Q9BY41 whole entry): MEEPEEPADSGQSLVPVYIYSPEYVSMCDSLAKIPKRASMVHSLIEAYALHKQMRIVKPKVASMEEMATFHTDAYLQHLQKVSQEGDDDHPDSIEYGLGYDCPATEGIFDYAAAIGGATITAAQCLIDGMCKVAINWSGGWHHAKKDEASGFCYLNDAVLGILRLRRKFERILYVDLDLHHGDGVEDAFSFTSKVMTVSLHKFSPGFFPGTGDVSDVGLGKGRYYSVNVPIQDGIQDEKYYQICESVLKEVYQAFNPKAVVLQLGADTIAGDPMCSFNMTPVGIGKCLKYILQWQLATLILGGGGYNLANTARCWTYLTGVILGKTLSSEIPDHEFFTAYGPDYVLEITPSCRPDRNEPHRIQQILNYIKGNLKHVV

Row | Structure (SMILES) | IC50 (LSD1) [nM] | IC50 (NCI-H69 cells) [nM] | IC50 (NCI-H1417 cells) [nM] | IC50 (pan-HDAC) [nM] | IC50 (NCI-H526 cells) [nM] | IC50 (HDAC8) [nM]
1 | COc1ccc(-c2cnc(N3CCC(NCc4ccc(/C=C/C(=O)NO)nc4)CC3)c(OC)c2-c2ccc(C#N)nc2)cc1O [Example 266, (E)-3-(5-(((1-(6-Cyano-5′-(3-hydroxy-4-methoxyphenyl)-3′-methoxy-[3,4′-bipyridin]-2′-yl)piperidin-4-yl)amino)methyl)pyridin-2-yl)-N-hydroxyacrylamide formate] | 24.2 | 2.02 | 2.09 | 0.16 | 2.35 | –
2 | O=C(CCCCCCC(=O)Nc1ccccc1)NO [SAHA, Vorinostat, reference compound] | – | – | – | – | 397 | –
3 | COc1ccc(-c2cnc(N3CCN(CCc4ccc(/C=C/C(=O)NO)cc4)CC3)c(C#N)c2-c2ccc(C#N)c(F)c2)cc1O [Example 49, (E)-3-(4-(2-(4-(3-Cyano-4-(4-cyano-3-fluorophenyl)-5-(3-hydroxy-4-methoxyphenyl)pyridin-2-yl)piperazin-1-yl)ethyl)phenyl)-N-hydroxyacrylamide hydrochloride] | – | 232 | 80.1 | – | 333 | –
4 | CC(C)(O)COc1ccc(-c2cnc(N3CCC(NC(C)(C)c4ccc(/C=C/C(=O)NO)cc4)CC3)c(C#N)c2-c2ccc(C#N)c(F)c2)cc1O [Example 223, (E)-3-(4-(2-((1-(3-Cyano-4-(4-cyano-3-fluorophenyl)-5-(3-hydroxy-4-(2-hydroxy-2-methylpropoxy)phenyl)pyridin-2-yl)piperidin-4-yl)amino)propan-2-yl)phenyl)-N-hydroxyacrylamide hydrochloride] | 1.01 | 4.56 | 3.23 | 4.37 | 16.8 | –
5 | COc1ccc(-c2cnc(N3CCC(NCc4ccc(/C=C/C(=O)NO)cc4)CC3)c(OC)c2-c2ccc(C#N)nc2)cc1O [Example 263, (E)-3-(4-(((1-(6-Cyano-5′-(3-hydroxy-4-methoxyphenyl)-3′-methoxy-[3,4′-bipyridin]-2′-yl)piperidin-4-yl)amino)methyl)phenyl)-N-hydroxyacrylamide formate] | 16.8 | 1.14 | 1.64 | 0.34 | 2.22 | –
6 | COc1ccc(-c2cnc(N3CCC(NCc4ccc(/C=C/C(=O)NO)cc4F)CC3)c(OC)c2-c2ccc(C#N)nc2)cc1O [Example 264, (E)-3-(4-(((1-(6-Cyano-5′-(3-hydroxy-4-methoxyphenyl)-3′-methoxy-[3,4′-bipyridin]-2′-yl)piperidin-4-yl)amino)methyl)-3-fluorophenyl)-N-hydroxyacrylamide formate] | 25.4 | 1.84 | 2.2 | 0.89 | 5.12 | –
7 | COc1cc(F)c(-c2cnc(N3CCC(NCc4ccc(/C=C/C(=O)NO)cc4)CC3)c(C#N)c2-c2ccc(C#N)nc2)cc1O [Example 255, (E)-3-(4-(((1-(3′,6-Dicyano-5′-(2-fluoro-5-hydroxy-4-methoxyphenyl)-[3,4′-bipyridin]-2′-yl)piperidin-4-yl)amino)methyl)phenyl)-N-hydroxyacrylamide formate] | 1.54 | 7.82 | 3.39 | 0.68 | 11 | –
8 | COc1ccc(-c2cnc(N3CCC(NCc4ccc(/C=C(\F)C(=O)NO)cc4)CC3)c(C#N)c2-c2ccc(C#N)nc2)cc1O [Example 260, (Z)-3-(4-(((1-(3′,6-Dicyano-5′-(3-hydroxy-4-methoxyphenyl)-[3,4′-bipyridin]-2′-yl)piperidin-4-yl)amino)methyl)phenyl)-2-fluoro-N-hydroxyacrylamide dformate] | 2.37 | 8.18 | 3.02 | 0.77 | 11.5 | –
9 | COc1ccc(-c2cnc(N3CCC(NCc4ccc(/C=C/C(=O)NO)cc4)CC3)c(C#N)c2-c2cnc(C#N)c(F)c2)cc1O [Example 249, (E)-3-(4-(((1-(3′,6-Dicyano-5-fluoro-5′-(3-hydroxy-4-methoxyphenyl)-[3,4′-bipyridin]-2′-yl)piperidin-4-yl)amino)methyl)phenyl)-N-hydroxyacrylamide formate] | 1.1 | 2.74 | 1.26 | 0.86 | 11.7 | –
10 | COc1cc(F)c(-c2cnc(N3CCC(NCc4ccc(/C=C/C(=O)NO)cc4)CC3)c(OC)c2-c2ccc(C#N)nc2)cc1O [Example 265, (E)-3-(4-(((1-(6-Cyano-5′-(2-fluoro-5-hydroxy-4-methoxyphenyl)-3′-methoxy-[3,4′-bipyridin]-2′-yl)piperidin-4-yl)amino)methyl)phenyl)-N-hydroxyacrylamide formate] | 10.2 | 7.2 | 5.09 | 0.45 | 5.85 | –
11 | COc1ccc(-c2cnc(N3CCC(NCc4ccc(CCC(=O)NO)cc4)CC3)c(C#N)c2-c2ccc(C#N)c(F)c2)cc1O [Example 43, 3-(4-((1-(3-Cyano-4-(4-cyano-3-fluorophenyl)-5-(3-hydroxy-4-methoxyphenyl)pyridin-2-yl)piperidin-4-yl)amino)methyl)phenyl)-N-hydroxypropanamide formate] | 0.62 | 38.5 | 4.96 | – | 35.3 | –
12 | COc1ccc(-c2cnc(N3CCC(NCc4ccc(/C=C/C(=O)NO)cc4)CC3)c(F)c2-c2ccc(C#N)nc2)cc1O [Example 268, (E)-3-(4-(((1-(6-Cyano-3′-fluoro-5′-(3-hydroxy-4-methoxyphenyl)-[3,4′-bipyridin]-2′-yl)piperidin-4-yl)amino)methyl)phenyl)-N-hydroxyacrylamide formate] | 147 | 1.58 | 2.03 | 0.27 | 2.22 | –
13 | CC(C)(O)COc1ccc(-c2cnc(N3CCC(NCc4ccc(/C=C/C(=O)NO)nc4)CC3)c(CC#N)c2-c2ccc(C#N)c(F)c2)cc1O [Example 221, (E)-3-(5-(((1-(4-(4-Cyano-3-fluorophenyl)-3-(cyanomethyl)-5-(3-hydroxy-4-(2-hydroxy-2-methylpropoxy)phenyl)pyridin-2-yl)piperidin-4-yl)amino)methyl)pyridin-2-yl)-N-hydroxyacrylamide formate] | 17.1 | 19.3 | 16.8 | 2.2 | 29 | –
14 | C/C(=C\C(=O)NO)c1ccc(CNC2CCN(c3ncc(-c4ccc(OCC(C)(C)O)c(O)c4)c(-c4ccc(C#N)c(F)c4)c3C#N)CC2)cc1 [Example 212, (E)-3-(4-(((1-(3-Cyano-4-(4-cyano-3-fluorophenyl)-5-(3-hydroxy-4-(2-hydroxy-2-methylpropoxy)phenyl)pyridin-2-yl)piperidin-4-yl)amino)methyl)phenyl)-N-hydroxybut-2-enamide hydrochloride] | 0.04 | 53.8 | 1.16 | 6.55 | – | 41.5
15 | COc1ccc(-c2cnc(N3CCC(NCc4ccc(CCC(=O)NO)c(C#N)c4)CC3)c(C#N)c2-c2ccc(C#N)c(F)c2)cc1O [Example 193, 3-(2-Cyano-4-((1-(3-cyano-4-(4-cyano-3-fluorophenyl)-5-(3-hydroxy-4-methoxyphenyl)pyridin-2-yl)piperidin-4-yl)amino)methyl) phenyl)-N-hydroxypropanamide formate] | 1.71 | 221 | 12.6 | 8.36 | – | 297
16 | COc1ccc(-c2cnc(N3CCC(NCc4ccc(OC(C)C(=O)NO)cc4)CC3)c(C#N)c2-c2ccc(C#N)c(F)c2)cc1O (stereo not shown) [Example 183, 2-(4-(((1-(3-Cyano-4-(4-cyano-3-fluorophenyl)-5-(3-hydroxy-4-methoxyphenyl)pyridin-2-yl)piperidin-4-yl)amino)methyl)phenoxy)-N-hydroxypropanamide formate] | 0.09 | 742 | 1.49 | 970 | – | 3720
